Here are results for 33 molecules from PubChem BioAssay AID977628 (Broad Institute, 2014).

Molecules are shown by their SMILES. Inconclusive results are not listed. Calls of active or inactive are those of the source.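 Rule for the calls: active = compound lowering the normal-ribosome reporter at least twice as much as the humanized-ribosome reporter, growth loss under a set limit; inconclusive = no clear call, values can overlap the other calls; inactive = the rest.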

For this experiment, the system named is E. coli WT GFP strain growth, fluorescence, 24 h. Kind of experiment: E. coli growth inhibition, wild-type GFP versus h24 humanized RFP strain, dose response, h24 mutant RFP vs wild-type GFP, cherry-pick (AID 977628).
One may read the AC50 as the midpoint of the concentration-response curve, whichever way the signal moves. In the case of `Cc1nn(S(=O)(=O)c2ccc(Cl)cc2)c(C)c1Sc1ccc([N+](=O)[O-])cc1`, the AC50 is > 100 µM (inactive). As for `Cc1cc(C(=O)Nc2cccc3c2O[C@H](CN(C)S(=O)(=O)c2ccc(Cl)cc2)[C@H](C)CN([C@H](C)CO)C3=O)n(C)n1`, the AC50 is > 100 µM (inactive). Under `COc1cccc(NC(=O)C2CCC(CNS(=O)(=O)c3cccs3)CC2)c1` (stereo not drawn) stands > 100 µM (inactive). Turning to `CCOC(=O)c1cccc(OS(=O)(=O)Cc2ccccc2)c1`, the AC50 was > 100 µM (inactive). Under `C[C@@H]1CCCCO[C@@H](CN(C)C(=O)c2ccccc2)[C@H](C)CN([C@@H](C)CO)C(=O)c2cc(NC(=O)c3ccccc3)ccc2O1` stands > 100 µM (inactive); under `COc1cc2[nH]c(=S)nc(NCCc3ccc(C)cc3)c2cc1OC`, > 100 µM (inactive).

For the molecule `COc1ccc(C(=O)C2CCCN(C(=O)c3noc4c3CCCC4)C2)cc1F` (stereo not drawn), the AC50 was > 100 µM (inactive). For `Cc1ccsc1C(=O)OCC(=O)N1CCc2ccccc2C1` the value was > 100 µM (inactive); for `O=C(CN1CCC(n2nnc3cc(F)ccc32)CC1)N1CCc2ccccc2C1`, > 100 µM (inactive); for `O=C(CN1c2ccccc2S(=O)(=O)c2ccccc21)NCc1ccc(F)cc1`, > 100 µM (inactive). Under `COc1ccc(C(=O)c2c(C)oc3ccc(O)cc23)cc1` stands > 100 µM (inactive); under `CCN(c1cccc2ccccc12)S(=O)(=O)c1ccc(Cl)nc1`, > 100 µM (inactive); under `CC(C)C[C@@H](CSc1ccccc1)N1CCN(CC(C)C)CCC1=O`, > 100 µM (inactive). `CCOC(=O)c1cnc2c(ccc3ccccc32)c1NCCCN(C)C`: the AC50 was > 100 µM (inactive). For `COc1cc(O)c2c(c1)/C=C/C[C@H](O)[C@H](O)C(=O)CCC[C@H](C)OC2=O` the value was > 100 µM (inactive); for `NC(=O)c1nsc(C(=O)N(c2ccccc2F)C(C(=O)NCc2ccc(F)cc2)c2ccc(O)cc2)c1N` (stereo not drawn), > 100 µM (inactive). Under `O=C(Nc1ccc(S(=O)(=O)N2CCCC2)cc1)c1ccc(OCC2CCCO2)cc1` (stereo not drawn) stands > 100 µM (inactive); under `Cc1ccc(C2NC(=O)c3[nH]nc(-c4ccccc4)c32)cc1` (stereo not drawn), > 100 µM (inactive). Under `O=C(c1ccccc1)C1CN(Cc2ccccc2)CCC1(O)c1ccccc1` (stereo not drawn) stands > 100 µM (inactive); under `O=C(O)CSc1nnc(-c2ccc(Cl)cc2Cl)n1-c1ccc(Br)cc1`, > 100 µM (inactive); under `CCC(C(=O)NCCc1ccc(C)cc1)n1nc(C)c2c(C)n(-c3ccccc3)nc2c1=O` (stereo not drawn), > 100 µM (inactive). For the molecule `CCOC(=O)c1cc(C)nc(N2CCCCC2)c1C#N`, the AC50 was > 100 µM (inactive).

As to `CSc1ccccc1NC(=O)c1ccccc1N(Cc1ccccc1)S(C)(=O)=O`, the AC50 is > 100 µM (inactive). For `Nc1nc(=S)ss1` the value was > 100 µM (inactive). For the molecule `O=C(Cc1cccc(NC(=O)C2CCN(C(=O)C3CCCCC3)CC2)c1)Nc1cccc(C(=O)N2CCCC2)c1`, the AC50 was > 100 µM (inactive).

Take `O=C(O)CC1(CC(=O)NCc2ccc(-c3cccs3)cc2)CCCCC1`: the AC50 was > 100 µM (inactive). Under `Cc1cccc(NC(=O)CC23CC4CC(C2)CC(n2nnc(C)n2)(C4)C3)c1` stands > 100 µM (inactive). Under `CC1CCCN(C(=O)C(C)Nc2cc(Cl)ccc2N2CCOCC2)C1` (stereo not drawn) stands > 100 µM (inactive). Regarding `COc1ccc(-c2cc(C(=O)N(C)CCc3ccc(OC)c(OC)c3)c3ccccc3n2)cc1`, the AC50 is > 100 µM (inactive). Take `Cc1ccccc1S(=O)(=O)c1cc2ccccc2nc1N`: the AC50 is > 100 µM (inactive). Turning to `O=S1(=O)N[C@H](Cc2ccccc2)COc2cccc(N3CCC[C@H]3CO)c21`, the AC50 is > 100 µM (inactive). Take `CN1C(=O)c2ccccc2OC1(C)Cc1ccccc1` (stereo not drawn): the AC50 was > 100 µM (inactive). For `O=C(CCC(=O)N1CCN(c2ccc(F)cc2)CC1)N1CCN(c2ccc(F)cc2)CC1`, the AC50 was > 100 µM (inactive).
